Each structure is given as a SMILES string. Where two headings read alike, the source gives them in different places.

These results are taken from patent publication US20210230101A1, “COMPOUNDS FOR TREATING DENGUE VIRUS INFECTIONS AND OTHER INFECTIONS” (Dana-Farber Cancer Institute, Inc., priority 2018, published 2021).

One data set has as its target His6-tagged DENV2 sE2 (Dengue virus type 2, UniProt P14340). Kind of data set: AlphaScreen competition assay (GNF2-biotin probe vs. envelope protein). The class given is binding, Dengue virus 2 (DENV2). From the text: Known DENV inhibitors to develop an AlphaScreen assay designed to identify compounds that compete for binding on envelop protein. The AlphaScreen is a bead-based proximity assay that permits measurement of biomolecular interactions of pico- to milli-molar affinities in microplate format. Following excitation of donor beads, energy is transferred to acceptor beads if analytes conjugated to donor and acceptor beads interact. […] We performed cross-titration experiments to optimize the molar concentrations of the probe (GNF2-biotin) and envelope glycoprotein for the assay. We also tested different orders of the addition of the assay components to achieve the best signal-to-noise ratio.

In data set [1] the test system is DENV. Kind of data set: Antiviral activity: viral infectivity assay (single-cycle viral yield). In kind it is cell-based. Conditions: Dengue virus; concentration that reduces single-cycle viral yield by 10-fold. On the procedure: The term “IC90” refers to the concentration of an antiviral agent that reduces single-cycle viral yield by 10-fold.
For the viral infectivity assay, virus inocula were diluted in EBSS to achieve a multiplicity of infection (MOI) of 1, and were pre-incubated with the given small molecule at varying concentrations for 45 min at 37° C. The mixture was then added to cells for 1 hour at 37° C. to allow infection, after which the inoculum was removed and the cells were washed with 1×PBS to remove unbound virus and compound. Cells were overlaid with medium lacking inhibitor and incubated at 37° C. for 20-24 hours, corresponding to a single cycle of infection. Culture supernatants were harvested at this time, and the yield of infectious particles produced was quantified by plaque-forming assay. For initial antiviral screening of HTS “hits,” compounds were tested for activity at 3 and 10 μM. For IC90 value determination, viral yield (plaque-forming units per milliliter) was plotted versus the log of the inhibitor concentration, and non-linear regression analysis of the data (Graphpad Prism) was performed to determine the concentration at which viral yield is reduced 10-fold.

A further data set concerns the target T1, AmpC β-lactamase (Escherichia coli, UniProt P00811).
T1 construct: Shoichet lab (UCSF), gift
The data set can be described thus: AmpC beta-lactamase non-specific enzyme inhibition assay. In kind it is biochemical. Conditions: IC50/μM vs. AmpC. On the procedure: AmpC beta-lactamase assay. The AmpC β-lactamase was a kind gift from the Shoichet lab (UCSF). The inhibitor was serially diluted (two-fold dilution series from 100 μM) and pre-incubated with 10 nM enzyme in working buffer (50 mM potassium phosphate, pH 7.0) at room temperature for 5 min. Nitrocefin (100 μM, VWR) was added to the solution and carefully mixed. Absorbance of the final mixture was immediately monitored at 470 nm for 3 min.
For both AmpC and MDH assays, the final concentration of DMSO was 2% for all samples. All assays were repeated in the presence of 0.01% Triton X-100. IC50 values of 3-110-22 presented in Table 2 are representative data from two independent experiments; values for the other lead compounds were measured once for each enzymatic assay.

Data set [2] concerns DENV. The data set can be described thus: PRNT plaque reduction assay. The class given is cell-based. Conditions: Dengue virus; plaque reduction by 50%; virus not given. On the procedure:
For plaque reduction assays, DENV1, 2, 3, 4 were tested on BHK-21 cells, and ZIKV was tested on Vero cells. Vims inocula were diluted in EBSS to 2500 pfu/ml as the final concentration, and were pre-incubated with different concentrations of small molecule inhibitors (2% DMSO vol/vol final concentration) for 45 min at 37° C., 5% CO2. The mixture (200 μl, 500 pfu of virus) was then added to cells for 1 hour (37° C., 5% CO2) to allow infection, after which the inoculum was removed, and the cells were washed with 1×PBS to remove unbound virus and compound. Cells were overlaid with carboxylmethylcellulose and incubated at 37° C., 5% CO2 to allow the formation of plaques (4 days for DENV1, 2, 3, 4 and 2-3 days for ZIKV). The cells were fixed and plaques visualized by staining of the cell monolayers with crystal violet. Empirical analysis was performed to determine the PRNT50 value, defined as the inhibitor concentration needed to reduce plaque formation by 50%.

A short description of data set [3]: Pharmacokinetic (PK) studies. Conditions: mouse, in vivo. The protocol:
FIG. 3. Pharmacokinetic (PK) data for S4105. The compound has a volume of distribution of 0.06 L/kg, which is essentially the blood volume of a mouse, implying that the compound may be sequestered in the plasma. […] The intraperitoneal (IP) dose was well absorbed. 8 hours after the IP dose of 20 mg/kg the plasma concentration for the three mice ranged from 75-200 μM. Even if the compound is 99.95% plasma protein bound, this would still give a free fraction of about 50 nM.
FIG. 4. PK data for ZNL-01-132. The compound has a long half-life in plasma of 5-6 hours. After IP dosing at 20 mg/kg high concentrations were achieved and 8 hours post dose the levels were approximately 2 μM.
PK studies were performed on compounds S4105 and ZNL-01-132.

Data set [4] is described as follows: Cytotoxicity (CellTiter-Glo). The class given is cell-based. Conditions: hamster, BHK21 cells, read-out: CC50/μM (toxicity). On the procedure: The term “CC50” refers to the concentration of an antiviral agent that causes 50% loss of cell viability.
BHK21 cells (MEM with 2% FBS) were incubated with varying concentrations of inhibitor in a 96-well white plate for 24 hours at 37 degrees C. and 5% CO2. CellTiter-Glo (Promega) solution was used to measure viability following the manufacturer's instructions. Luminescence was measured using a Biotek Synergy plate reader. Data were plotted versus the log10 inhibitor concentration, and non-linear regression analysis (Graphpad Prism) was used to determine CC50 values, defined as the inhibitor concentration required to cause 50% loss of cell viability. The maximum concentration tested was 100 μM. Values presented in Table 1 are the average of two or more independent experiments.

A further data set deals with VSV-eGFP. Kind of data set: VSV-eGFP counter screen. In kind it is cell-based.
[5] abbreviates: TX, in the presence of 0.01% Triton X-100.

T1 sequence (P00811 20-377): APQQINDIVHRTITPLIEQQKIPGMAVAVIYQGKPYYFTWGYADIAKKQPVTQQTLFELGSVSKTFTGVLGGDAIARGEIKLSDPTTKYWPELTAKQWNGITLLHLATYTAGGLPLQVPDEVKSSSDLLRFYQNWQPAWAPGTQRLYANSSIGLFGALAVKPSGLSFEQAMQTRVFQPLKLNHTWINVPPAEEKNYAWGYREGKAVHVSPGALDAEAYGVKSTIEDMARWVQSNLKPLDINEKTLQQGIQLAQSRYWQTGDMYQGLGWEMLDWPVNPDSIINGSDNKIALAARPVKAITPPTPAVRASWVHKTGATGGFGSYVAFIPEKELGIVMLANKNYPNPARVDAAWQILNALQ

On His6-tagged DENV2 sE2, `Cc1cc(C(C#N)c2ccc(Cl)cc2)c(Cl)cc1NC(=O)c1ccccc1O` (stereo not drawn) came in with an IC50 of 2 µM. It took 8 µM to reach the 90% level in the data set on DENV [1] (IC90).

In turn, `O=C(Nc1ccc(Oc2ccc(Cl)cc2)c(Cl)c1)c1cc(I)cc(I)c1O` yielded an IC50 at His6-tagged DENV2 sE2 of 0.8 µM.

The compound `Cc1cc(C(C#N)c2ccc(Cl)cc2)c(Cl)cc1NC(=O)c1cc(I)cc(I)c1O` (stereo not drawn) [S4105] yielded an IC50 against AmpC β-lactamase (No TX, without Triton X-100) of 0.3 µM. In addition, at AmpC β-lactamase (setting [5]), the IC50 was above 100 µM. In addition, it took 0.3 µM to reach a half-maximal effect with DENV [2] (EC50). For the same compound, in data set [3], the Vd amounted to 0.06 L/kg. Besides, in data set [3] (ip), the “absorption of intraperitoneal (IP) dose” value is “well absorbed”. Further, in data set [3] (ip, 20 mg/kg), the concentration at 8 h fell in the range of 75 to 200 µM. In data set [3] (iv), this compound gave a clearance of 2.4 mL/h/kg and a half-life of 21 h. The CC50 at 24 h in data set [4] is around 50 µM.

On His6-tagged DENV2 sE2, `Cc1cc(C(C#N)c2ccc(Cl)cc2)c(Cl)cc1NC(=O)c1cc(I)cc(I)c1O` (stereo not drawn) [drawing 87] showed an IC50 of 0.8 µM. The compound also yielded an IC90 with DENV [1] of 1 µM.

On to `O=C(Nc1ccc(Oc2ccc(Cl)cc2)c(Cl)c1)c1cc(F)cc(F)c1O` [ZNL-01-132], for which the IC50 against AmpC β-lactamase (No TX, without Triton X-100) is 38 µM; on AmpC β-lactamase (setting [5]), above 100 µM; on His6-tagged DENV2 sE2, 4 µM. This compound registered an EC50 with DENV [2] of 0.5 µM. Besides, in the data set with VSV-eGFP (2.5 μM), the “% Inhibition Vs. VSV-eGFP, 2.5 μM” value stood at 80%. Also, the “% Inhibition Vs. VSV-eGFP, 5 μM” value in the data set with VSV-eGFP (5 μM) is above 90%. The compound further gave a half-life in data set [3] of 5 to 6 h. Besides, the concentration at 8 h in data set [3] (IP 20 mg/kg, 8 hours post dose, read-out: plasma concentration 8 hours after IP dose) was around 2 µM. The CC50 at 24 h in data set [4] was found to be 44 µM.

As to `NC(=O)c1cccc(-c2cc(Nc3ccc(OC(F)(F)F)cc3)ncn2)c1` [GNF2, reference compound], at His6-tagged DENV2 sE2 (GNF2-biotin on donor beads, His6-tagged DENV2 sE2 on acceptor beads), the “competition of AlphaScreen signal” value was “competed away in a dose-dependent fashion”.
